# Measured values: US8772480B2, “Inhibitors of PI3 kinase and/or mTOR” (priority 2009, dated 2014)
# Key:
# PI3Kα = PI3Kα (Homo sapiens (Human), UniProt P42336); conditions: read-out: PI3Kα AlphaScreen ® Ki
# [1] = system: phosphorylation of Akt at Serine 473 in U87 MG cells; test: cells; conditions: Homo sapiens, U-87 MG, 2 h, read-out: U87Cell IC50, pAkt (Ser 473), U87 MG cells, two hours with compound
# Sequence of PI3Kα (P42336 whole entry): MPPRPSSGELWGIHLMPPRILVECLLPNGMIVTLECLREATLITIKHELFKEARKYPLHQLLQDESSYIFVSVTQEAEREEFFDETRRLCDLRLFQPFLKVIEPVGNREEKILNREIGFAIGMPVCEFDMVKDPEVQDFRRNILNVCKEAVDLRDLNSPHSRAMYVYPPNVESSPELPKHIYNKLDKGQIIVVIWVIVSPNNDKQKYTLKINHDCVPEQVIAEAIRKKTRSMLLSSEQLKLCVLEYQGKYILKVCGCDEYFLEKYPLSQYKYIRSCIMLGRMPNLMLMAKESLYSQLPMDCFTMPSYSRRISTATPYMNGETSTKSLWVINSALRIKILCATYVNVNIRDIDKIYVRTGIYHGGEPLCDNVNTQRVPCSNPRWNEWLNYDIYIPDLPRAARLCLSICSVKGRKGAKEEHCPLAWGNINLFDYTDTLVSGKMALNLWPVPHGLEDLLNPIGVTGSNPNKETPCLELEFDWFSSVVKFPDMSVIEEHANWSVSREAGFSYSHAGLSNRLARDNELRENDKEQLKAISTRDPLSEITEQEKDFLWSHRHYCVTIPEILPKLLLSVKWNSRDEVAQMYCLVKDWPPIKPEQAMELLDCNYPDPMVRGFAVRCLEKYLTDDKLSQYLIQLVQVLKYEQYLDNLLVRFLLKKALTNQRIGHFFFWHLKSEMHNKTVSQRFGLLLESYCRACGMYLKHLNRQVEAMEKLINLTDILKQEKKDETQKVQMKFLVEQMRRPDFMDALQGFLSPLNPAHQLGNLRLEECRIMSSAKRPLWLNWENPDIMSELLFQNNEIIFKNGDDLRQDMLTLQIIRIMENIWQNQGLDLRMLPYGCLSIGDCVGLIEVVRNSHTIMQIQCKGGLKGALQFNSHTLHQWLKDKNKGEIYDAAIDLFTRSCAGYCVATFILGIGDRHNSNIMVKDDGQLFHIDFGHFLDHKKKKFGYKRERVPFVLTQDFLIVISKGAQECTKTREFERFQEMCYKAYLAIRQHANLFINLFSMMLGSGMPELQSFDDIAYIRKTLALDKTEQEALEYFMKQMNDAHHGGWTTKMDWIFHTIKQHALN
# Sequence of PI3Kα (P27986 whole entry partner): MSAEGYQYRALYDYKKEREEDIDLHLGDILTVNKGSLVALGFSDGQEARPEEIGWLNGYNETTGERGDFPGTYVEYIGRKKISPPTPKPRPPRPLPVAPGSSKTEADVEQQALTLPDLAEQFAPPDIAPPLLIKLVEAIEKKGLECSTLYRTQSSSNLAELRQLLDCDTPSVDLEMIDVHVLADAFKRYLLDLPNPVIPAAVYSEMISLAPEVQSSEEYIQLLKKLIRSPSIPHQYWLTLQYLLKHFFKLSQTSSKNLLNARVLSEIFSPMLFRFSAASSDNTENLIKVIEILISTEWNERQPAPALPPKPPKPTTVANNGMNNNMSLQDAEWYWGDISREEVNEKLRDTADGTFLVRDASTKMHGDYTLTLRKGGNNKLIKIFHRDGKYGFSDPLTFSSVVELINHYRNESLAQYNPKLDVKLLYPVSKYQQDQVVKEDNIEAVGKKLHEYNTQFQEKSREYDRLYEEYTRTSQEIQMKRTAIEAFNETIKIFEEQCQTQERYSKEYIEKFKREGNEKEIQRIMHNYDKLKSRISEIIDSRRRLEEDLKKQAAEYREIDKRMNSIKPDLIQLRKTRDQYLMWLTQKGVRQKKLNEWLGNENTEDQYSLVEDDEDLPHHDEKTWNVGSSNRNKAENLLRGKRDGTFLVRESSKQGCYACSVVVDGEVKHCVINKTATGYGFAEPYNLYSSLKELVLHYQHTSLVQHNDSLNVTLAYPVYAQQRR
Ki (PI3Kα),IC50 [1],SMILES
77 nM,272 nM,"COc1ccc(CNc2cnc(Nc3ccc(OC)nc3)c(-c3nc(C)nc4[nH]cnc34)c2)cc1 [Example 95, N5-(4-methoxybenzyl)-N2-(6-methoxypyridin-3-yl)-3-(2-methyl-9H-purin-6-yl)pyridine-2,5-diamine]"
16 nM,1030 nM,"Cc1nc(N)nc(-c2cc(CN3CCN(S(C)(=O)=O)CC3)cnc2Nc2ccc3[nH]cnc3c2)n1 [Example 260, N-(3-(4-Amino-6-Methyl-1,3,5-Triazin-2-yl)-5-((4-(Methylsulfonyl)Piperazin-1-yl)Methyl)Pyridin-2-yl)-1H-Benzo[D]Imidazol-5-Amine]"
180 nM,> 10000 nM,"Cc1ccc(-c2nc(C)nc(N)n2)c(Nc2cncc(F)c2)n1 [Example 200, 4-(2-(5-Fluoropyridin-3-Ylamino)-6-Methylpyridin-3-yl)-6-Methyl-1,3,5-Triazin-2-Amine]"
5 nM,14 nM,"COc1ncc(Nc2ncc(C3CCOCC3)cc2-c2nc(C)nc(N)n2)cc1F [Example 344, 4-(2-(5-Fluoro-6-Methoxypyridin-3-Ylamino)-5-(Tetrahydro-2H-Pyran-4-yl)Pyridin-3-yl)-6-Methyl-1,3,5-Triazin-2-Amine]"
23 nM,204 nM,"COc1ccc(Nc2ncc(N3CCN(S(C)(=O)=O)CC3)cc2-c2nc(C)nc3[nH]cnc23)cn1 [Example 99, N-(6-Methoxypyridin-3-yl)-3-(2-Methyl-9H-Purin-6-yl)-5-(4-(Methylsulfonyl)Piperazin-1-yl)Pyridin-2-Amine]"
409 nM,> 10000 nM,"COCCNc1nc(C)nc(-c2cc(Cl)cnc2Nc2cnc(OC)c(F)c2)n1 [Example 189, 4-(5-Chloro-2-(5-Fluoro-6-Methoxypyridin-3-Ylamino)Pyridin-3-yl)-N-(2-Methoxyethyl)-6-Methyl-1,3,5-Triazin-2-Amine]"
61 nM,45 nM,"COc1ncc(Nc2ncc(C(C)NC(C)C)cc2-c2nc(C)nc(N)n2)cc1F (centres unmarked) [Example 299, 4-(2-(5-Fluoro-6-Methoxypyridin-3-Ylamino)-5-(1-(Isopropylamino)Ethyl)Pyridin-3-yl)-6-Methyl-1,3,5-Triazin-2-Amine]"
47 nM,180 nM,"COc1ccc(Nc2ncc(OC(F)F)cc2-c2nc(C)nc(N)n2)cn1 [Example 262, 4-(5-(Difluoromethoxy)-2-(6-Methoxypyridin-3-Ylamino)Pyridin-3-yl)-6-Methyl-1,3,5-Triazin-2-Amine]"
260 nM,> 10000 nM,"Cc1nc(N)cc(-c2nccnc2Nc2cnc(Cl)c(NS(C)(=O)=O)c2)n1 [Example 307, N-(5-((3-(6-amino-2-methyl-4-pyrimidinyl)-2-pyrazinyl)amino)-2-chloro-3-pyridinyl)methanesulfonamide]"
63 nM,> 10000 nM,"COc1ncc(Nc2nc(-c3ccncc3)ccc2-c2nc(C)nc(N)n2)cc1F [Example 175, 5-(4-Amino-6-Methyl-1,3,5-Triazin-2-yl)-N-(5-Fluoro-6-Methoxypyridin-3-yl)-2,4′-Bipyridin-6-Amine]"
264 nM,2420 nM,"Cc1nc(-c2cnccc2Nc2cccc3[nH]ncc23)c2nc[nH]c2n1 [Example 110, N-(3-(2-methyl-9H-purin-6-yl)pyridin-4-yl)-1H-indazol-4-amine]"
1 nM,11 nM,"COc1ncc(Nc2ncc(C(C)c3ccc(S(C)(=O)=O)cc3)cc2-c2nc(C)nc(N)n2)cc1F (centres unmarked) [Example 150, 4-(2-(5-Fluoro-6-Methoxypyridin-3-Ylamino)-5-(1-(4-(Methylsulfonyl)Phenyl)Ethyl)Pyridin-3-yl)-6-Methyl-1,3,5-Triazin-2-Amine]"
14 nM,83 nM,"COc1ncc(Nc2ncc(CN3CCN(C(=O)N(C)C(C)C)CC3)cc2-c2nc(C)nc(N)n2)cc1F [Example 357, 4-((5-(4-Amino-6-Methyl-1,3,5-Triazin-2-yl)-6-(5-Fluoro-6-Methoxypyridin-3-Ylamino)Pyridin-3-yl)Methyl)-N-Isopropyl-N-Methylpiperazine-1-Carboxamide]"
110 nM,70 nM,"CCC(N)(CC)c1cnc(Nc2cnc(OC)c(F)c2)c(-c2nc(C)nc(N)n2)c1 [Example 301, 4-(5-(3-Aminopentan-3-yl)-2-(5-Fluoro-6-Methoxypyridin-3-Ylamino)Pyridin-3-yl)-6-Methyl-1,3,5-Triazin-2-Amine]"
455 nM,> 10000 nM,"Cc1cncc(Nc2ncccc2-c2nc(C)nc(N)n2)c1 [Example 174, 4-Methyl-6-(2-(5-Methylpyridin-3-Ylamino)Pyridin-3-yl)-1,3,5-Triazin-2-Amine]"
18 nM,12 nM,"COc1cc(Nc2ncc(CN3CCN(S(C)(=O)=O)C[C@@H]3C)cc2-c2nc(C)nc(N)n2)cnc1Cl [Example 317, (S)-4-(2-(6-Chloro-5-Methoxypyridin-3-Ylamino)-5-((2-Methyl-4-(Methylsulfonyl)Piperazin-1-yl)Methyl)Pyridin-3-yl)-6-Methyl-1,3,5-Triazin-2-Amine]"

Ki (PI3Kα),IC50 [1],SMILES
55 nM,46 nM,"Cc1nc(N)nc(-c2cc(CN3CCN(S(C)(=O)=O)CC3)cnc2Nc2ccc3ncoc3c2)n1 [Example 39, N-(3-(4-Amino-6-Methyl-1,3,5-Triazin-2-yl)-5-((4-(Methylsulfonyl)Piperazin-1-yl)Methyl)Pyridin-2-yl)Benzo[D]Oxazol-6-Amine]"
4 nM,14 nM,"Cc1nc(-c2cc(C(C)N3CCOCC3)cnc2Nc2cnc(Cl)c(NS(=O)(=O)N(C)C)c2)c2nc[nH]c2n1 (centres unmarked) [Example 340, N′-(2-Chloro-5-((3-(2-Methyl-9H-Purin-6-yl)-5-(1-(4-Morpholinyl)Ethyl)-2-Pyridinyl)Amino)-3-Pyridinyl)-N,N-Dimethylsulfamide]"
354 nM,573 nM,"COc1ccc(Nc2ncc(CN[C@H](C)CO)cc2-c2nc(C)nc(N)n2)cn1 [Example 226, (R)-2-((5-(4-Amino-6-Methyl-1,3,5-Triazin-2-yl)-6-(6-Methoxypyridin-3-Ylamino)Pyridin-3-yl)Methylamino)Propan-1-ol]"
17 nM,105 nM,"COc1ccc(Nc2ncc(-c3ccc(OC)nc3)cc2-c2nc(C)nc(N)n2)cn1 [Example 169, 5-(4-Amino-6-Methyl-1,3,5-Triazin-2-yl)-6′-Methoxy-N-(6-Methoxypyridin-3-yl)-3,3′-Bipyridin-6-Amine]"
15 nM,7 nM,"Cc1nc(N)nc(-c2cc([C@H](C)N3CCOCC3)cnc2Nc2cnc(Cl)c(NS(=O)(=O)N(C)C)c2)n1 [Example 374, (S)—N-(5-(3-(4-Amino-6-Methyl-1,3,5-Triazin-2-yl)-5-(1-Morpholinoethyl)Pyridin-2-Ylamino)-2-Chloropyridin-3-yl)-N,N-Dimethylaminosulfamide]"
32 nM,18 nM,"COc1ncc(Nc2ncc([C@H](C)N3CCOCC3)cc2-c2cc(N)nc(C)n2)cc1F [Example 275, 6-(2-((5-Fluoro-6-Methoxy-3-Pyridinyl)Amino)-5-((1S)-1-(4-Morpholinyl)Ethyl)-3-Pyridinyl)-2-Methyl-4-Pyrimidinamine]"
45 nM,33 nM,"Cc1nc(N)nc(-c2cc(C(C)N3CCOCC3)cnc2Nc2ccc3scnc3c2)n1 (centres unmarked) [Example 288, N-(3-(4-Amino-6-Methyl-1,3,5-Triazin-2-yl)-5-(1-Morpholinoethyl)Pyridin-2-yl)Benzo[D]Thiazol-5-Amine]"
97 nM,148 nM,"COc1ccc(Nc2nc(N3CCOCC3)ncc2-c2nc(C)nc(N)n2)cn1 [Example 120, 4-(4-(6-methoxypyridin-3-ylamino)-2-morpholinopyrimidin-5-yl)-6-methyl-1,3,5-triazin-2-amine]"
1 nM,3 nM,"COc1ncc(Nc2ncc([C@@H](C)N3CCN(S(C)(=O)=O)C[C@@H]3C)cc2-c2cc(N)nc(C)n2)cc1F [Example 306, 6-(2-((5-fluoro-6-methoxy-3-pyridinyl)amino)-5-((1R)-1-((2S)-2-methyl-4-(methylsulfonyl)-1-piperazinyl)ethyl)-3-pyridinyl)-2-methyl-4-pyrimidinamine]"
68 nM,57 nM,"Cc1nc(N)nc(-c2cc(CN3CCN(S(C)(=O)=O)CC3)cnc2Nc2ccc3ccncc3c2)n1 [Example 326, N-(3-(4-Amino-6-Methyl-1,3,5-Triazin-2-yl)-5-((4-(Methylsulfonyl)Piperazin-1-yl)Methyl)Pyridin-2-yl)Isoquinolin-7-Amine]"
6 nM,58 nM,"COc1ccc(Nc2ncc(-c3ccccn3)cc2-c2nc(C)nc(N)n2)cn1 [Example 172, 5′-(4-Amino-6-Methyl-1,3,5-Triazin-2-yl)-N-(6-Methoxypyridin-3-yl)-2,3′-Bipyridin-6′-Amine]"
6 nM,7 nM,"COc1ccc(Nc2ncc([C@@H](C)N3CCN(S(C)(=O)=O)CC3)cc2-c2nc(C)nc(N)n2)cn1 [Example 146, (R)-4-(2-(6-Methoxypyridin-3-Ylamino)-5-(1-(4-(Methylsulfonyl)Piperazin-1-yl)Ethyl)Pyridin-3-yl)-6-Methyl-1,3,5-Triazin-2-Amine]"
5 nM,185 nM,"COc1ccc(Nc2ncc(C(O)c3ccc(S(C)(=O)=O)cc3)cc2-c2nc(C)nc3[nH]cnc23)cn1 (centres unmarked) [Example 139, (6-(6-methoxypyridin-3-ylamino)-5-(2-methyl-9H-purin-6-yl)pyridin-3-yl)(4-(methylsulfonyl)phenyl)methanol]"
7 nM,30 nM,"CNc1nc(C)nc(-c2cc(CN3CCN(S(C)(=O)=O)CC3)cnc2Nc2ccc(OC)nc2)n1 [Example 163, 4-(2-(6-Methoxypyridin-3-Ylamino)-5-((4-(Methylsulfonyl)Piperazin-1-yl)Methyl)Pyridin-3-yl)-N,6-Dimethyl-1,3,5-Triazin-2-Amine]"
86 nM,51 nM,"COc1ccc(Nc2ncc([C@@H](O)C(F)(F)F)cc2-c2nc(C)nc(N)n2)cn1 [Example 322, (R)-1-(5-(4-amino-6-methyl-1,3,5-triazin-2-yl)-6-(6-methoxypyridin-3-ylamino)pyridin-3-yl)-2,2,2-trifluoroethanol]"
